Reference: BindingDB's records for doi:10.1021/jm00384a019 (1987)

Molecular target: DNA polymerase alpha (Cricetulus griseus)
Assay: Compound was evaluated for the concentration which gives half-maximal inhibition of Chinese Hamster Ovary DNA polymerase alpha

SMILES	Ki [nM]
CCCCc1ccc(Nc2nc(Cl)c3[nH]cnc3n2)cc1 [(4-Butyl-phenyl)-(6-chloro-9H-purin-2-yl)-amine]	2600
CCCCc1ccc(Nc2nc(SC)c3[nH]cnc3n2)cc1 [(4-Butyl-phenyl)-(6-methylsulfanyl-9H-purin-2-yl)-amine]	1000
CCCCc1ccc(Nc2ncc3[nH]cnc3n2)cc1 [(4-Butyl-phenyl)-(9H-purin-2-yl)-amine]	5000

Other lines, results leading:

Ki [nM]	SMILES
1400	CCCCc1ccc(Nc2nc(OC)c3[nH]cnc3n2)cc1 [(4-Butyl-phenyl)-(6-methoxy-9H-purin-2-yl)-amine]
14400	CCCCc1ccc(Nc2nc(N)c3[nH]cnc3n2)cc1 [N*2*-(4-Butyl-phenyl)-9H-purine-2,6-diamine]
